Values quoted from earlier work, collected in US4181797A, “1-N-(ω-amino-α-hydroxyalkanoyl) derivatives of 4'-deoxy-6'-N-methylkanamycin A” (Bristol-Myers Company, priority 1978, dated 1980).

Legend:
[1] = tested on: resistant strains which contain 6'-N-acetylating enzymes; settings: background statement; cited from earlier work
[2] = tested on: strains which phosphorylate the 3'-hydroxy group; settings: background statement; cited from earlier work
[3] = tested on: kanamycin phosphotransferase Type-II; settings: The Journal of Antibiotics, 27, 722-725 and 838-850 (1974); cited from earlier work

| Structure (SMILES) | activity against strains with 6'-N-acetylating enzymes [1] | activity against 3'-hydroxy phosphorylating strains [2] | resistance to kanamycin phosphotransferase Type-II [3] |
| --- | --- | --- | --- |
| NCC1OC(OC2C(N)CC(N)C(OC3OC(CO)C(O)C(N)C3O)C2O)C(O)CC1O (stereo not drawn) [3'-deoxykanamycin] | inactivated by other resistant strains | active against strains which phosphorylate the 3'-hydroxy group |  |
| NCC1CC(O)C(O)C(OC2C(N)CC(N)C(OC3OC(CO)C(O)C(N)C3O)C2O)O1 (stereo not drawn) [4'-deoxykanamycin] |  |  | resistance to kanamycin phosphotransferase Type-II |
